Results as given in PubChem BioAssay AID276 (DTP/NCI, 2004).
Inconclusive results and toxic doses are left out.

Tested on: B6C3F1 mice, Lewis lung carcinoma iv, survival T/C
Assay: NCI In Vivo Anticancer Drug Screen. Data for tumor model Lewis Lung Carcinoma (intravenous) in B6C3F1 mice
Conditions: endpoint: median survival time, higher = longer survival
Summary of the method: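 T/C ratio derived from survival of compound-treated versus vehicle-treated mice bearing transplantable tumors.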

[1] = dose: 12.5 mg/kg/injection, schedule: Q01DX009 (ip), vehicle: saline with Tween-80
[2] = dose: 25.0 mg/kg/injection, schedule: Q01DX009 (ip), vehicle: saline with Tween-80
[3] = dose: 50.0 mg/kg/injection, schedule: Q01DX009 (ip), vehicle: saline with Tween-80
[4] = dose: 100.0 mg/kg/injection, schedule: Q01DX009 (ip), vehicle: saline with Tween-80
[5] = dose: 6.25 mg/kg/injection, schedule: Q01DX009 (ip), vehicle: saline
[6] = dose: 12.5 mg/kg/injection, schedule: Q01DX009 (ip), vehicle: saline
[7] = dose: 25.0 mg/kg/injection, schedule: Q01DX009 (ip), vehicle: saline
[8] = dose: 3.12 mg/kg/injection, schedule: Q01DX009 (ip), vehicle: saline with Tween-80
[9] = dose: 6.25 mg/kg/injection, schedule: Q01DX009 (ip), vehicle: saline with Tween-80
[10] = dose: 1.56 mg/kg/injection, schedule: Q01DX009 (ip), vehicle: saline with Tween-80

Clc1ccc(C2SC=Cc3ccccc32)cc1 (stereo not drawn)
T/C (dose: 25.0 mg/kg/injection, schedule: Q01DX009 (ip), vehicle: Klucel (hydroxypropylcellulose) (HPC)): 115 % of control | T/C (dose: 50.0 mg/kg/injection, schedule: Q01DX009 (ip), vehicle: Klucel (hydroxypropylcellulose) (HPC)): 114 % of control | T/C (dose: 100.0 mg/kg/injection, schedule: Q01DX009 (ip), vehicle: Klucel (hydroxypropylcellulose) (HPC)): 110 % of control | T/C (dose: 200.0 mg/kg/injection, schedule: Q01DX009 (ip), vehicle: Klucel (hydroxypropylcellulose) (HPC)): 107 % of control | T/C (dose: 400.0 mg/kg/injection, schedule: Q01DX009 (ip), vehicle: Klucel (hydroxypropylcellulose) (HPC)): 105 % of control

C=C(C)C1C2CC3(C)C4(CO4)C4OC4C3(O)C1C(=O)O2 (stereo not drawn)
T/C (dose: 0.25 mg/kg/injection, schedule: Q01DX008 (ip), vehicle: Klucel (hydroxypropylcellulose) (HPC)): 108 % of control | T/C (dose: 0.5 mg/kg/injection, schedule: Q01DX008 (ip), vehicle: Klucel (hydroxypropylcellulose) (HPC)): 102 % of control | T/C (dose: 1.0 mg/kg/injection, schedule: Q01DX008 (ip), vehicle: Klucel (hydroxypropylcellulose) (HPC)): 108 % of control | T/C (dose: 2.0 mg/kg/injection, schedule: Q01DX008 (ip), vehicle: Klucel (hydroxypropylcellulose) (HPC)): 105 % of control

CCCCCCCCCCCCCCC/C([O-])=N/[N+](C)(C)CC(C)O (stereo not drawn)
T/C (dose: 25.0 mg/kg/injection, schedule: Q01DX001 (ip), vehicle: saline): 91 % of control | T/C (dose: 50.0 mg/kg/injection, schedule: Q01DX001 (ip), vehicle: saline): 88 % of control | T/C (dose: 100.0 mg/kg/injection, schedule: Q01DX001 (ip), vehicle: saline): 87 % of control | T/C (dose: 200.0 mg/kg/injection, schedule: Q01DX001 (ip), vehicle: saline): 95 % of control

Cc1oc2c(C)c3oc(=O)cc(C)c3cc2c1CCl
T/C [1]: 103 % of control | T/C [2]: 101 % of control

O=C(O)C1Cc2nc[nH]c2CN1CO (stereo not drawn)
T/C [1]: 109 % of control | T/C [2]: 104 % of control | T/C [3]: 99 % of control | T/C [4]: 114 % of control | T/C (dose: 200.0 mg/kg/injection, schedule: Q01DX009 (ip), vehicle: saline with Tween-80): 103 % of control | T/C (dose: 400.0 mg/kg/injection, schedule: Q01DX009 (ip), vehicle: saline with Tween-80): 98 % of control

CSC(SC)=C1C(=O)NC(=O)NC1=O
T/C (dose: 3.12 mg/kg/injection, schedule: Q01DX009 (ip), vehicle: saline): 103 % of control | T/C [5]: 105 % of control | T/C [6]: 96 % of control | T/C [7]: 112 % of control

NC(=O)c1ncn2c(=O)n(CCCl)nnc12
T/C (dose: 3.13 mg/kg/injection, schedule: Q01DX009 (ip), vehicle: saline): 113 % of control | T/C [5]: 123 % of control | T/C [7]: 309 % of control

CCCCCCCCCCCCCC#CC(=O)O
T/C [8]: 97 % of control | T/C [9]: 93 % of control | T/C [1]: 101 % of control | T/C [2]: 89 % of control | T/C [3]: 93 % of control

CCN(CC)c1ccc2[nH]c3c(C(N)=O)cc(=O)c(=O)c=3oc2c1
T/C [1]: 90 % of control | T/C [2]: 107 % of control | T/C [3]: 98 % of control | T/C [4]: 93 % of control

O/N=C/c1ccccc1O.O/N=C/c1ccccc1O.[Cu]
T/C [10]: 113 % of control | T/C [8]: 100 % of control | T/C [9]: 104 % of control | T/C [1]: 96 % of control | T/C [2]: 104 % of control | T/C [3]: 96 % of control

CNC(=O)n1c(N)nc(-c2ccccc2)c1-c1ccccc1
T/C [9]: 102 % of control | T/C [1]: 103 % of control | T/C [2]: 103 % of control | T/C [3]: 102 % of control

O=C(O)CP(=O)(O)O
T/C [6]: 94 % of control | T/C [7]: 97 % of control | T/C (dose: 50.0 mg/kg/injection, schedule: Q01DX009 (ip), vehicle: saline): 97 % of control | T/C (dose: 100.0 mg/kg/injection, schedule: Q01DX009 (ip), vehicle: saline): 95 % of control | T/C (dose: 200.0 mg/kg/injection, schedule: Q01DX009 (ip), vehicle: saline): 92 % of control | T/C (dose: 400.0 mg/kg/injection, schedule: Q01DX009 (ip), vehicle: saline): 94 % of control | T/C (dose: 800.0 mg/kg/injection, schedule: Q01DX009 (ip), vehicle: saline): 94 % of control

C[CH2][Sn]1([CH2]C)[O]OC(c2ccccc2)[O]1 (stereo not drawn)
T/C (dose: 0.78 mg/kg/injection, schedule: Q01DX009 (ip), vehicle: saline with Tween-80): 97 % of control | T/C [10]: 100 % of control | T/C [8]: 100 % of control | T/C [1]: 95 % of control
